Laboratory results: the supplement of paper PMC10307832

Key:
Assay in all cases: relative viability (nuclei count vs DMSO), 5 days (fraction); higher = more cells survive
[1] = compound: COc1cc(Nc2ncc3c(n2)-c2ccc(Cl)cc2C(c2c(F)cccc2OC)=NC3)ccc1C(=O)O [Alisertib] + CC(=O)c1c(C)c2cnc(Nc3ccc(N4CCNCC4)cn3)nc2n(C2CCCC2)c1=O [Palbociclib] (partner 0.5 µM)
Method in brief: (§1)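 One day after seeding in 1536-well plates, lung cancer cell lines were dosed by pin tool. Dosing was either single-drug or a fixed anchor-drug dose plus five library-drug doses (not always all listed) in √10 steps. After 5 days, nuclei were stained in one fix-and-stain step and counted on 4× images, and relative viability is the nuclei count of treated wells over that of vehicle wells, given as the median of duplicate plates.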

[2] = compound: COc1cc(Nc2ncc3c(n2)-c2ccc(Cl)cc2C(c2c(F)cccc2OC)=NC3)ccc1C(=O)O [Alisertib] + CS(=O)(=O)N1CCN(Cc2cc3nc(-c4cccc5[nH]ncc45)nc(N4CCOCC4)c3s2)CC1 [Pictilisib] (partner 1 µM)
Method in brief: as §1

[3] = compound: COc1cc(Nc2ncc3c(n2)-c2ccc(Cl)cc2C(c2c(F)cccc2OC)=NC3)ccc1C(=O)O [Alisertib] + COc1cc2c(Oc3ccc(NC(=O)C4(C(=O)Nc5ccc(F)cc5)CC4)cc3F)ccnc2cc1OCCCN1CCOCC1 [Foretinib] (partner 0.25 µM)
Method in brief: as §1

[4] = compound: COc1cc(Nc2ncc3c(n2)-c2ccc(Cl)cc2C(c2c(F)cccc2OC)=NC3)ccc1C(=O)O [Alisertib] + CC(C)C[C@H](NC(=O)[C@H](Cc1ccccc1)NC(=O)c1cnccn1)B(O)O [Bortezomib] (partner 0.002 µM)
Method in brief: as §1

Question: Which results are given for NCI-H3122?
Answer: relative viability ([1]; first compound 0.005 µM): 0.174; relative viability ([1]; first compound 0.01581 µM): 0.174; relative viability ([1]; first compound 0.05 µM): 0.215; relative viability ([1]; first compound 0.1581 µM): 0.139; relative viability ([1]; first compound 0.5 µM): 0.149; relative viability ([2]; first compound 0.005 µM): 0.584; relative viability ([2]; first compound 0.01581 µM): 0.62; relative viability ([2]; first compound 0.05 µM): 0.586; relative viability ([2]; first compound 0.1581 µM): 0.266; relative viability ([2]; first compound 0.5 µM): 0.198; relative viability ([3]; first compound 0.005 µM): 0.9; relative viability ([3]; first compound 0.01581 µM): 0.981; relative viability ([3]; first compound 0.05 µM): 0.551; relative viability ([3]; first compound 0.1581 µM): 0.384; relative viability ([3]; first compound 0.5 µM): 0.191; relative viability ([4]; first compound 0.005 µM): 0.987; relative viability ([4]; first compound 0.01581 µM): 1.04; relative viability ([4]; first compound 0.05 µM): 0.865; relative viability ([4]; first compound 0.1581 µM): 0.47; relative viability ([4]; first compound 0.5 µM): 0.308

Question: Which relative viability ([1]; first compound 0.005 µM) does the source give for PC-3 [JPC-3] here?
Answer: Its relative viability is 0.537.

Question: And the relative viability ([1]; first compound 0.01581 µM)?
Answer: The relative viability was 0.53.

Question: What about the relative viability ([1]; first compound 0.05 µM) of the same cell line?
Answer: The relative viability was 0.515.

Question: And the relative viability ([1]; first compound 0.1581 µM)?
Answer: The relative viability was 0.541.

Question: And the relative viability ([1]; first compound 0.5 µM)?
Answer: Its relative viability is 0.513.

Question: And the relative viability ([2]; first compound 0.005 µM)?
Answer: The relative viability was 0.616.

Question: What about the relative viability ([2]; first compound 0.01581 µM) of the same cell line?
Answer: The relative viability was 0.728.

Question: And the relative viability ([2]; first compound 0.05 µM)?
Answer: The relative viability was 0.667.

Question: What about the relative viability ([2]; first compound 0.1581 µM) of the same cell line?
Answer: Its relative viability is 0.349.

Question: What about the relative viability ([2]; first compound 0.5 µM) of the same cell line?
Answer: Its relative viability is 0.369.

Question: And the relative viability ([3]; first compound 0.005 µM)?
Answer: The relative viability was 0.97.

Question: And the relative viability ([3]; first compound 0.01581 µM)?
Answer: The relative viability was 0.868.

Question: And the relative viability ([3]; first compound 0.05 µM)?
Answer: Its relative viability is 0.706.

Question: What about the relative viability ([3]; first compound 0.1581 µM) of the same cell line?
Answer: Its relative viability is 0.531.

Question: What about the relative viability ([3]; first compound 0.5 µM) of the same cell line?
Answer: Its relative viability is 0.398.

Question: What about the relative viability ([4]; first compound 0.005 µM) of the same cell line?
Answer: The relative viability was 0.796.

Question: And the relative viability ([4]; first compound 0.01581 µM)?
Answer: Its relative viability is 0.828.

Question: What about the relative viability ([4]; first compound 0.05 µM) of the same cell line?
Answer: Its relative viability is 0.775.

Question: And the relative viability ([4]; first compound 0.1581 µM)?
Answer: The relative viability was 0.539.

Question: What about the relative viability ([4]; first compound 0.5 µM) of the same cell line?
Answer: Its relative viability is 0.39.

Question: What does the source list for PC-14?
Answer: relative viability ([1]; first compound 0.005 µM): 0.526; relative viability ([1]; first compound 0.01581 µM): 0.45; relative viability ([1]; first compound 0.05 µM): 0.332; relative viability ([1]; first compound 0.1581 µM): 0.082; relative viability ([1]; first compound 0.5 µM): 0.0483; relative viability ([2]; first compound 0.005 µM): 0.632; relative viability ([2]; first compound 0.01581 µM): 0.672; relative viability ([2]; first compound 0.05 µM): 0.447; relative viability ([2]; first compound 0.1581 µM): 0.127; relative viability ([2]; first compound 0.5 µM): 0.0567; relative viability ([3]; first compound 0.005 µM): 0.849; relative viability ([3]; first compound 0.01581 µM): 0.77; relative viability ([3]; first compound 0.05 µM): 0.837; relative viability ([3]; first compound 0.1581 µM): 0.473; relative viability ([3]; first compound 0.5 µM): 0.135; relative viability ([4]; first compound 0.005 µM): 0.876; relative viability ([4]; first compound 0.01581 µM): 0.732; relative viability ([4]; first compound 0.05 µM): 0.515; relative viability ([4]; first compound 0.1581 µM): 0.208; relative viability ([4]; first compound 0.5 µM): 0.0801

Question: What does the source list for RERF-LC-KJ?
Answer: relative viability ([1]; first compound 0.005 µM): 1.07; relative viability ([1]; first compound 0.01581 µM): 0.834; relative viability ([1]; first compound 0.05 µM): 0.601; relative viability ([1]; first compound 0.1581 µM): 0.275; relative viability ([1]; first compound 0.5 µM): 0.246; relative viability ([2]; first compound 0.005 µM): 0.49; relative viability ([2]; first compound 0.01581 µM): 0.517; relative viability ([2]; first compound 0.05 µM): 0.435; relative viability ([2]; first compound 0.1581 µM): 0.206; relative viability ([2]; first compound 0.5 µM): 0.159; relative viability ([3]; first compound 0.005 µM): 0.861; relative viability ([3]; first compound 0.01581 µM): 0.772; relative viability ([3]; first compound 0.05 µM): 0.484; relative viability ([3]; first compound 0.1581 µM): 0.356; relative viability ([3]; first compound 0.5 µM): 0.21; relative viability ([4]; first compound 0.005 µM): 0.945; relative viability ([4]; first compound 0.01581 µM): 1.05; relative viability ([4]; first compound 0.05 µM): 0.879; relative viability ([4]; first compound 0.1581 µM): 0.293; relative viability ([4]; first compound 0.5 µM): 0.304

Question: What does the source list for SK-LU-1?
Answer: relative viability ([1]; first compound 0.005 µM): 0.395; relative viability ([1]; first compound 0.01581 µM): 0.364; relative viability ([1]; first compound 0.05 µM): 0.22; relative viability ([1]; first compound 0.1581 µM): 0.242; relative viability ([1]; first compound 0.5 µM): 0.236; relative viability ([2]; first compound 0.005 µM): 0.58; relative viability ([2]; first compound 0.01581 µM): 0.386; relative viability ([2]; first compound 0.05 µM): 0.312; relative viability ([2]; first compound 0.1581 µM): 0.266; relative viability ([2]; first compound 0.5 µM): 0.209; relative viability ([3]; first compound 0.005 µM): 0.818; relative viability ([3]; first compound 0.01581 µM): 0.66; relative viability ([3]; first compound 0.05 µM): 0.324; relative viability ([3]; first compound 0.1581 µM): 0.227; relative viability ([3]; first compound 0.5 µM): 0.182; relative viability ([4]; first compound 0.005 µM): 0.963; relative viability ([4]; first compound 0.01581 µM): 0.862; relative viability ([4]; first compound 0.05 µM): 0.503; relative viability ([4]; first compound 0.1581 µM): 0.403; relative viability ([4]; first compound 0.5 µM): 0.253

Question: SW 1573 was tested. Which relative viability ([1]; first compound 0.005 µM) did it give?
Answer: Its relative viability is 0.304.

Question: What about the relative viability ([1]; first compound 0.01581 µM) of the same cell line?
Answer: The relative viability was 0.27.

Question: What about the relative viability ([1]; first compound 0.05 µM) of the same cell line?
Answer: The relative viability was 0.152.

Question: And the relative viability ([1]; first compound 0.1581 µM)?
Answer: Its relative viability is 0.134.

Question: And the relative viability ([1]; first compound 0.5 µM)?
Answer: The relative viability was 0.117.

Question: And the relative viability ([2]; first compound 0.005 µM)?
Answer: The relative viability was 0.466.

Question: And the relative viability ([2]; first compound 0.01581 µM)?
Answer: The relative viability was 0.387.

Question: And the relative viability ([2]; first compound 0.05 µM)?
Answer: Its relative viability is 0.2.

Question: And the relative viability ([2]; first compound 0.1581 µM)?
Answer: Its relative viability is 0.158.

Question: What about the relative viability ([2]; first compound 0.5 µM) of the same cell line?
Answer: Its relative viability is 0.112.

Question: And the relative viability ([3]; first compound 0.005 µM)?
Answer: Its relative viability is 0.911.

Question: And the relative viability ([3]; first compound 0.01581 µM)?
Answer: Its relative viability is 0.772.

Question: And the relative viability ([3]; first compound 0.05 µM)?
Answer: Its relative viability is 0.667.

Question: What about the relative viability ([3]; first compound 0.1581 µM) of the same cell line?
Answer: The relative viability was 0.245.

Question: And the relative viability ([3]; first compound 0.5 µM)?
Answer: Its relative viability is 0.172.

Question: And the relative viability ([4]; first compound 0.005 µM)?
Answer: Its relative viability is 0.937.

Question: What about the relative viability ([4]; first compound 0.01581 µM) of the same cell line?
Answer: The relative viability was 0.726.

Question: What about the relative viability ([4]; first compound 0.05 µM) of the same cell line?
Answer: Its relative viability is 0.492.

Question: What about the relative viability ([4]; first compound 0.1581 µM) of the same cell line?
Answer: The relative viability was 0.29.

Question: What about the relative viability ([4]; first compound 0.5 µM) of the same cell line?
Answer: Its relative viability is 0.161.

Question: Which results are given for UMC-11?
Answer: relative viability ([1]; first compound 0.005 µM): 0.331; relative viability ([1]; first compound 0.01581 µM): 0.289; relative viability ([1]; first compound 0.05 µM): 0.248; relative viability ([1]; first compound 0.1581 µM): 0.223; relative viability ([1]; first compound 0.5 µM): 0.275; relative viability ([2]; first compound 0.005 µM): 0.316; relative viability ([2]; first compound 0.01581 µM): 0.379; relative viability ([2]; first compound 0.05 µM): 0.129; relative viability ([2]; first compound 0.1581 µM): 0.137; relative viability ([2]; first compound 0.5 µM): 0.133; relative viability ([3]; first compound 0.005 µM): 0.648; relative viability ([3]; first compound 0.01581 µM): 0.263; relative viability ([3]; first compound 0.05 µM): 0.189; relative viability ([3]; first compound 0.1581 µM): 0.195; relative viability ([3]; first compound 0.5 µM): 0.168; relative viability ([4]; first compound 0.005 µM): 0.34; relative viability ([4]; first compound 0.01581 µM): 0.184; relative viability ([4]; first compound 0.05 µM): 0.0876; relative viability ([4]; first compound 0.1581 µM): 0.107; relative viability ([4]; first compound 0.5 µM): 0.122
